This passage reports IC50 results from US12281057B2 (VERTEX PHARMACEUTICALS INCORPORATED, priority 2017, dated 2025).

The target of the test is truncated form of human NaV 1.8 with full channel activity (Homo sapiens, UniProt Q9Y5Y9). In words: E-VIPR Assay Method A for detecting and measuring Nav inhibition (HEK cells, membrane potential FRET dyes, electrical stimulation). The settings on record: HEK cells expressing human NaV 1.8, HS (human serum) in compound loading buffer, 11 point dose response, top dose 3 μM, Table 20A, read-out: Nav 1.8 MedChem Optical Assay EVIPR Assay Method A HS IC50. In kind it is cell-based. Summed up: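 HEK cells expressing truncated human NaV1.8, loaded with CC2-DMPE/DiSBAC6(3) FRET dyes, incubated 30 min at room temp with compound (0.625% DMSO), then electrically stimulated (1.25 A biphasic, 10 Hz, 10 s). Inhibition from 460/580 nm ratio Rf/Ri, normalised to positive and DMSO controls.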
Sequence of truncated form of human NaV 1.8 with full channel activity (Q9Y5Y9 126-1722 limits assumed): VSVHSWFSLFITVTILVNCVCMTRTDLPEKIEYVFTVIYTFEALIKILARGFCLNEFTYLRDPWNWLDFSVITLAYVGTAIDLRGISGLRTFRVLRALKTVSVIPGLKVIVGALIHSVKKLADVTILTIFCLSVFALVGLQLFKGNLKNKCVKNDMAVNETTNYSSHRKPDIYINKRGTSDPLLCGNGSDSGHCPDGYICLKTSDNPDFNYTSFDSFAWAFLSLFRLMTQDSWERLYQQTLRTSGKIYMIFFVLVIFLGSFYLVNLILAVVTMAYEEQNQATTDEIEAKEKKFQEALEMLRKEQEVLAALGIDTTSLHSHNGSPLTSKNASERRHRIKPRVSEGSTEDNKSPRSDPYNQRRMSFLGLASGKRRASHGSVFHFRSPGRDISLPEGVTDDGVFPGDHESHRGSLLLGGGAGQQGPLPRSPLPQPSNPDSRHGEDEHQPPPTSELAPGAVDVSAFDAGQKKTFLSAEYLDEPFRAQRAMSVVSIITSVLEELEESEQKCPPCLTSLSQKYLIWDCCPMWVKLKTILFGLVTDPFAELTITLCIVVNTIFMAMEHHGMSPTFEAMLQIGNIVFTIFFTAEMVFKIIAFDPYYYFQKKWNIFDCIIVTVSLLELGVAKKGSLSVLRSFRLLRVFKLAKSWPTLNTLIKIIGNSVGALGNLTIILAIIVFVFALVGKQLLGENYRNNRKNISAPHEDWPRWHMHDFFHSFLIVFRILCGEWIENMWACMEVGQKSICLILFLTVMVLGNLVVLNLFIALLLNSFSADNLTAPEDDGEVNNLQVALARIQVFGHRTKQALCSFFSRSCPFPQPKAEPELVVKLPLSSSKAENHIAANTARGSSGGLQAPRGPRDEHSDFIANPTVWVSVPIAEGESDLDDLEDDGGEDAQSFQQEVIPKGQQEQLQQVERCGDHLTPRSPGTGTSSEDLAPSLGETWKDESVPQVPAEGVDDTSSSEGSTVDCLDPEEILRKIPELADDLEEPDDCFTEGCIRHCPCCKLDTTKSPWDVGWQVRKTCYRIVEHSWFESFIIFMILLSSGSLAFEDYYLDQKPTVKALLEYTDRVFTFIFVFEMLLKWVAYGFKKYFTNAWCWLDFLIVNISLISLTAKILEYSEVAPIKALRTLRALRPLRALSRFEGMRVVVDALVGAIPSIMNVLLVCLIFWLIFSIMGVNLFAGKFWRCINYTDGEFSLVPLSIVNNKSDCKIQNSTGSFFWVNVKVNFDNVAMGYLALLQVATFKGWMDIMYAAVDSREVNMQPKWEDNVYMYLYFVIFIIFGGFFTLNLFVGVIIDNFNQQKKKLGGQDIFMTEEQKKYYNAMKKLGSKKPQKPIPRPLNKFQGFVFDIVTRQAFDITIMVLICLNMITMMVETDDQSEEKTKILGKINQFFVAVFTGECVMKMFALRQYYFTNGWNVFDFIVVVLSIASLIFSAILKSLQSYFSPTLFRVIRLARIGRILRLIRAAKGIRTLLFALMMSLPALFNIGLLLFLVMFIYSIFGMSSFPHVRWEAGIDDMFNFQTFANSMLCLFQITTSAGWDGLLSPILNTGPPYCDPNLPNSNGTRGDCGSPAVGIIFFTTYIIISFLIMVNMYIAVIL
For `COc1cc(OC(F)(F)F)ccc1Oc1cc(C2(C)CC2)ncc1C(=O)Nc1ccc(F)c(C(N)=O)c1` [Compound 102, N-(3-Carbamoyl-4-fluoro-phenyl)-4-[2-methoxy-4-(trifluoromethoxy)phenoxy]-6-(1-methylcyclopropyl)pyridine-3-carboxamide], the IC50 came to 22 nM.

As to `COc1cc(OC(F)(F)F)ccc1Oc1cc(C(C)(C)F)ncc1C(=O)Nc1ccc(F)c(C(N)=O)c1` [Compound 103, N-(3-Carbamoyl-4-fluoro-phenyl)-6-(1-fluoro-1-methyl-ethyl)-4-[2-methoxy-4-(trifluoromethoxy)phenoxy]pyridine-3-carboxamide], the IC50 stood at 34 nM.

With `COc1cc(OC(F)(F)F)ccc1Oc1cc(C(C)(C)F)ncc1C(=O)Nc1ccnc(C(N)=O)c1` [Compound 104, N-(2-Carbamoyl-4-pyridyl)-6-(1-fluoro-1-methyl-ethyl)-4-[2-methoxy-4-(trifluoromethoxy)phenoxy]pyridine-3-carboxamide], the IC50 stood at 64 nM.

As to `COc1cc(OC(F)(F)F)ccc1Oc1cc(C2(C)CC2)ncc1C(=O)Nc1ccnc(C(N)=O)c1` [Compound 105, N-(2-Carbamoyl-4-pyridyl)-4-[2-methoxy-4-(trifluoromethoxy)phenoxy]-6-(1-methylcyclopropyl)pyridine-3-carboxamide], the IC50 was 44 nM.

As for `COc1cc(OC(F)(F)F)ccc1Oc1cc(C2CC2(F)F)ncc1C(=O)Nc1ccnc(C(N)=O)c1` (centres unmarked) [Compound 107, N-(2-Carbamoyl-4-pyridyl)-6-(2,2-difluorocyclopropyl)-4-[2-methoxy-4-(trifluoromethoxy)phenoxy]pyridine-3-carboxamide], the IC50 is 123 nM.

`COc1cc(OC(F)(F)F)ccc1Oc1cc(C2CC2(F)F)ncc1C(=O)Nc1ccc(F)c(C(N)=O)c1` (centres unmarked) [Compound 108, N-(3-Carbamoyl-4-fluoro-phenyl)-6-(2,2-difluorocyclopropyl)-4-[2-methoxy-4-(trifluoromethoxy)phenoxy]pyridine-3-carboxamide]: the IC50 is 50 nM.

Turning to `NC(=O)c1cc(NC(=O)c2c(Oc3ccc(OC(F)(F)F)cc3)ccc(C(F)(F)F)c2F)cc[n+]1[O-]` [Compound 110, 4-[[2-Fluoro-6-[4-(trifluoromethoxy)phenoxy]-3-(trifluoromethyl)benzoyl]amino]-1-oxido-pyridin-1-ium-2-carboxamide], the IC50 was found to be 55 nM.

Consider `[2H]C([2H])([2H])Oc1cc(OC(F)(F)F)ccc1Oc1ccc(C(F)(F)F)c(F)c1C(=O)Nc1cc[n+]([O-])c(C(N)=O)c1` [Compound 115, 4-[[2-Fluoro-6-[2-(trideuteriomethoxy)-4-(trifluoromethoxy)phenoxy]-3-(trifluoromethyl)benzoyl]amino]-1-oxido-pyridin-1-ium-2-carboxamide], for which the IC50 turned out to be 6 nM.

`COc1cc(OC(F)(F)F)ccc1Oc1cc(C2CC2)c(F)cc1C(=O)Nc1ccnc(C(N)=O)c1` [Compound 116, 4-[[4-Cyclopropyl-5-fluoro-2-[2-methoxy-4-(trifluoromethoxy)phenoxy]benzoyl]amino]pyridine-2-carboxamide]: the IC50 was determined as 145 nM.

For the molecule `COc1cc(OC(F)(F)F)ccc1Oc1cncc(F)c1C(=O)Nc1ccc(F)c(C(N)=O)c1` [Compound 117, N-(3-Carbamoyl-4-fluoro-phenyl)-3-fluoro-5-[2-methoxy-4-(trifluoromethoxy)phenoxy]pyridine-4-carboxamide], the IC50 is 180 nM.

Consider `COc1cc(OC(F)(F)F)ccc1Oc1ccc(C(F)(F)F)c(F)c1C(=O)Nc1cc(C(N)=O)c(F)cc1C` [Compound 118], for which the IC50 amounted to 100 nM.

On to `COc1cc(OC(F)(F)F)ccc1Oc1cc(C2(C(F)(F)F)CC2)ncc1C(=O)Nc1ccnc(C(N)=O)c1` [Compound 119, N-(2-Carbamoyl-4-pyridyl)-4-[2-methoxy-4-(trifluoromethoxy)phenoxy]-6-[1-(trifluoromethyl)cyclopropyl]pyridine-3-carboxamide], for which the IC50 came to 48 nM.

As to `COc1cc(OC(F)(F)F)ccc1Oc1ccc(C(F)(F)F)c(F)c1C(=O)Nc1cc(C(N)=O)ncc1C` [Compound 120, 4-[[2-Fluoro-6-[2-methoxy-4-(trifluoromethoxy)phenoxy]-3-(trifluoromethyl)benzoyl]amino]-5-methyl-pyridine-2-carboxamide], the IC50 was found to be 5 nM.

For the molecule `COc1cc(OC(F)(F)F)ccc1Oc1cc2c(cc1C(=O)Nc1ccnc(C(N)=O)c1)OC(F)(F)O2` [Compound 121, 4-[[2,2-Difluoro-6-[2-methoxy-4-(trifluoromethoxy)phenoxy]-1,3-benzodioxole-5-carbonyl]amino]pyridine-2-carboxamide], the IC50 was found to be 180 nM.

Consider `COc1cc(OC(F)(F)F)ccc1Oc1cc2c(cc1C(=O)Nc1ccc(F)c(C(N)=O)c1)OC(F)(F)O2` [Compound 122, N-(3-Carbamoyl-4-fluoro-phenyl)-2,2-difluoro-6-[2-methoxy-4-(trifluoromethoxy)phenoxy]-1,3-benzodioxole-5-carboxamide], for which the IC50 is 56 nM.

Take `COc1cc(OC(F)(F)F)ccc1Oc1ccc(C(F)(F)F)c(F)c1C(=O)Nc1cc(C(N)=O)ncc1F` [Compound 123, 5-Fluoro-4-[[2-fluoro-6-[2-methoxy-4-(trifluoromethoxy)phenoxy]-3-(trifluoromethyl)benzoyl]amino]pyridine-2-carboxamide]: the IC50 is 5 nM.

Regarding `Cc1cc(F)c(C(N)=O)cc1NC(=O)c1c(Oc2ccc(OC(F)(F)F)cc2)ccc(C(F)(F)F)c1F` [Compound 124, N-(5-Carbamoyl-4-fluoro-2-methyl-phenyl)-2-fluoro-6-[4-(trifluoromethoxy)phenoxy]-3-(trifluoromethyl)benzamide], the IC50 came to 220 nM.

On to `COc1cc(OC(F)(F)F)ccc1Oc1cc(C2CC2)c(C(F)(F)F)cc1C(=O)Nc1ccnc(C(N)=O)c1` [Compound 125, 4-[[4-Cyclopropyl-2-[2-methoxy-4-(trifluoromethoxy)phenoxy]-5-(trifluoromethyl)benzoyl]amino]pyridine-2-carboxamide], for which the IC50 is 34 nM.

With `COc1cc(Oc2ccc(C(F)(F)F)c(F)c2C(=O)Nc2ccc(F)c(C(N)=O)c2)ccc1OC(F)(F)F` [Compound 126, N-(3-Carbamoyl-4-fluoro-phenyl)-2-fluoro-6-[3-methoxy-4-(trifluoromethoxy)phenoxy]-3-(trifluoromethyl)benzamide], the IC50 is 47 nM.

Turning to `[2H]C([2H])([2H])Oc1cc(OC(F)(F)F)ccc1Oc1ccc(C(F)(F)F)c(F)c1C(=O)Nc1ccc(C(N)=O)cc1` [Compound 127, N-(4-carbamoylphenyl)-2-fluoro-6-[2-(trideuteriomethoxy)-4-(trifluoromethoxy)phenoxy]-3-(trifluoromethyl)benzamide], the IC50 was found to be 4 nM.

As for `COc1cc(OC(F)(F)F)ccc1Oc1ccc(C(F)(F)F)c(OC)c1C(=O)Nc1cc(C(N)=O)ncc1F` [Compound 128, 5-Fluoro-4-(2-methoxy-6-(2-methoxy-4-(trifluoromethoxy)phenoxy)-3-(trifluoromethyl)benzamido)picolinamide], the IC50 stood at 18 nM.

Take `COc1cc(OC(F)(F)F)ccc1Oc1ccc(F)c(Cl)c1C(=O)Nc1cc(C(N)=O)ncc1C` [Compound 129, 4-[[2-Chloro-3-fluoro-6-[2-methoxy-4-(trifluoromethoxy)phenoxy]benzoyl]amino]-5-methyl-pyridine-2-carboxamide]: the 50% inhibitory concentration (IC50) came to 69 nM.

For `COc1cc(OC(F)(F)F)ccc1Oc1cc(Cl)cc(F)c1C(=O)Nc1cc(C(N)=O)ncc1C` [Compound 130, 4-[[4-Chloro-2-fluoro-6-[2-methoxy-4-(trifluoromethoxy)phenoxy]benzoyl]amino]-5-methyl-pyridine-2-carboxamide], the IC50 was 27 nM.

Turning to `COc1c(C(F)(F)F)ncc(Oc2ccc(OC(F)(F)F)cc2)c1C(=O)Nc1cc(C(N)=O)ncc1C` [Compound 131, N-(2-Carbamoyl-5-methyl-4-pyridyl)-3-methoxy-5-[4-(trifluoromethoxy)phenoxy]-2-(trifluoromethyl)pyridine-4-carboxamide], the IC50 came out at 170 nM.

Regarding `COc1c(C(F)(F)F)ccc(Oc2ccc(OC(F)(F)F)cc2)c1C(=O)Nc1ccc(C(N)=O)c(F)c1` [Compound 132, N-(4-Carbamoyl-3-fluoro-phenyl)-2-methoxy-6-[4-(trifluoromethoxy)phenoxy]-3-(trifluoromethyl)benzamide], the IC50 amounted to 140 nM.

For the molecule `COc1cc(OC(F)(F)F)ccc1Oc1cc(Cl)cc(OC)c1C(=O)Nc1cc(C(N)=O)ncc1C` [Compound 133, 4-[[4-Chloro-2-methoxy-6-[2-methoxy-4-(trifluoromethoxy)phenoxy]benzoyl]amino]-5-methyl-pyridine-2-carboxamide], the IC50 was found to be 430 nM.

Turning to `NC(=O)c1cc(NC(=O)c2c(Oc3ccc(OC(F)(F)F)cc3)ccc(C(F)(F)F)c2F)ccc1Cl` [Compound 134, N-(3-carbamoyl-4-chloro-phenyl)-2-fluoro-6-[4-(trifluoromethoxy)phenoxy]-3-(trifluoromethyl)benzamide], the IC50 turned out to be 68 nM.

On to `Cn1nccc1-c1cc(F)ccc1Oc1ccc(C(F)(F)F)c(F)c1C(=O)Nc1ccc(F)c(C(N)=O)c1` [Compound 135, N-(3-Carbamoyl-4-fluoro-phenyl)-2-fluoro-6-[4-fluoro-2-(2-methylpyrazol-3-yl)phenoxy]-3-(trifluoromethyl)benzamide], for which the IC50 turned out to be 140 nM.

Take `NC(=O)c1cc(NC(=O)c2c(Oc3ccc(OC(F)F)cc3F)ccc(C(F)(F)F)c2F)ccn1` [Compound 136, 4-[[6-[4-(Difluoromethoxy)-2-fluoro-phenoxy]-2-fluoro-3-(trifluoromethyl)benzoyl]amino]pyridine-2-carboxamide]: the IC50 was found to be 140 nM.

What is called IC50 is the concentration needed to halve the response being measured.
